Data on eight molecules can be found in patent US9416128B2, “Fused heterocyclic compounds as ion channel modulators” (Gilead Sciences, Inc., priority 2013, dated 2016).

One assay concerns the target T1, hNaV1.2 (SCN2A) (Homo sapiens, UniProt Q99250).
T1 construct: expressed in transfected cells
The experiment in a line: Use-dependent inhibition of the CNS NaV1.2 sodium channel. Format: cell-based. Particulars: HEK-293, % inhibition, 25 Hz; for inhibition at 1 µM: use-dependent block at 1 uM, read-out: Nav1.2 UDB 25 Hz 1 uM; for inhibition at 10 µM: use-dependent block at 10 uM, read-out: Nav1.2 UDB 25 Hz 10 uM. An outline of the steps: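 Use-dependent block of human NaV1.2 was recorded by automated whole-cell patch clamp (QPatch) in HEK-293 cells stably expressing hNaV1.2 with beta1 and beta2 subunits. From a −120 mV holding potential, a 25 Hz train of twenty 20 ms pulses to 0 mV was applied. Peak current at pulse 20, normalized to pulse 1, gave percent inhibition versus compound-free conditions at 23-25° C.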

In another assay the target is hNaV1.1 (SCN1A) (Homo sapiens, UniProt P35498). Kind of assay: Use-dependent inhibition of the CNS NaV1.1 sodium channel. Format: cell-based. As to conditions: % inhibition, 25 Hz; for inhibition at 1 µM: use-dependent block at 1 uM, read-out: Nav1.1 UDB 25 Hz 1 uM; for inhibition at 10 µM: use-dependent block at 10 uM, read-out: Nav1.1 UDB 25 Hz 10 uM. A digest of the protocol:
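Whole-cell automated patch clamp on HEK-293 cells stably expressing hNaV1.1, 23-25° C., CsF internal solution. Peak current at pulse 20 of a 25 Hz train (0 mV, 20 ms) from −120 mV, normalized to pulse 1; percentage inhibition versus compound-free condition.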

T1 sequence (Q99250 whole entry): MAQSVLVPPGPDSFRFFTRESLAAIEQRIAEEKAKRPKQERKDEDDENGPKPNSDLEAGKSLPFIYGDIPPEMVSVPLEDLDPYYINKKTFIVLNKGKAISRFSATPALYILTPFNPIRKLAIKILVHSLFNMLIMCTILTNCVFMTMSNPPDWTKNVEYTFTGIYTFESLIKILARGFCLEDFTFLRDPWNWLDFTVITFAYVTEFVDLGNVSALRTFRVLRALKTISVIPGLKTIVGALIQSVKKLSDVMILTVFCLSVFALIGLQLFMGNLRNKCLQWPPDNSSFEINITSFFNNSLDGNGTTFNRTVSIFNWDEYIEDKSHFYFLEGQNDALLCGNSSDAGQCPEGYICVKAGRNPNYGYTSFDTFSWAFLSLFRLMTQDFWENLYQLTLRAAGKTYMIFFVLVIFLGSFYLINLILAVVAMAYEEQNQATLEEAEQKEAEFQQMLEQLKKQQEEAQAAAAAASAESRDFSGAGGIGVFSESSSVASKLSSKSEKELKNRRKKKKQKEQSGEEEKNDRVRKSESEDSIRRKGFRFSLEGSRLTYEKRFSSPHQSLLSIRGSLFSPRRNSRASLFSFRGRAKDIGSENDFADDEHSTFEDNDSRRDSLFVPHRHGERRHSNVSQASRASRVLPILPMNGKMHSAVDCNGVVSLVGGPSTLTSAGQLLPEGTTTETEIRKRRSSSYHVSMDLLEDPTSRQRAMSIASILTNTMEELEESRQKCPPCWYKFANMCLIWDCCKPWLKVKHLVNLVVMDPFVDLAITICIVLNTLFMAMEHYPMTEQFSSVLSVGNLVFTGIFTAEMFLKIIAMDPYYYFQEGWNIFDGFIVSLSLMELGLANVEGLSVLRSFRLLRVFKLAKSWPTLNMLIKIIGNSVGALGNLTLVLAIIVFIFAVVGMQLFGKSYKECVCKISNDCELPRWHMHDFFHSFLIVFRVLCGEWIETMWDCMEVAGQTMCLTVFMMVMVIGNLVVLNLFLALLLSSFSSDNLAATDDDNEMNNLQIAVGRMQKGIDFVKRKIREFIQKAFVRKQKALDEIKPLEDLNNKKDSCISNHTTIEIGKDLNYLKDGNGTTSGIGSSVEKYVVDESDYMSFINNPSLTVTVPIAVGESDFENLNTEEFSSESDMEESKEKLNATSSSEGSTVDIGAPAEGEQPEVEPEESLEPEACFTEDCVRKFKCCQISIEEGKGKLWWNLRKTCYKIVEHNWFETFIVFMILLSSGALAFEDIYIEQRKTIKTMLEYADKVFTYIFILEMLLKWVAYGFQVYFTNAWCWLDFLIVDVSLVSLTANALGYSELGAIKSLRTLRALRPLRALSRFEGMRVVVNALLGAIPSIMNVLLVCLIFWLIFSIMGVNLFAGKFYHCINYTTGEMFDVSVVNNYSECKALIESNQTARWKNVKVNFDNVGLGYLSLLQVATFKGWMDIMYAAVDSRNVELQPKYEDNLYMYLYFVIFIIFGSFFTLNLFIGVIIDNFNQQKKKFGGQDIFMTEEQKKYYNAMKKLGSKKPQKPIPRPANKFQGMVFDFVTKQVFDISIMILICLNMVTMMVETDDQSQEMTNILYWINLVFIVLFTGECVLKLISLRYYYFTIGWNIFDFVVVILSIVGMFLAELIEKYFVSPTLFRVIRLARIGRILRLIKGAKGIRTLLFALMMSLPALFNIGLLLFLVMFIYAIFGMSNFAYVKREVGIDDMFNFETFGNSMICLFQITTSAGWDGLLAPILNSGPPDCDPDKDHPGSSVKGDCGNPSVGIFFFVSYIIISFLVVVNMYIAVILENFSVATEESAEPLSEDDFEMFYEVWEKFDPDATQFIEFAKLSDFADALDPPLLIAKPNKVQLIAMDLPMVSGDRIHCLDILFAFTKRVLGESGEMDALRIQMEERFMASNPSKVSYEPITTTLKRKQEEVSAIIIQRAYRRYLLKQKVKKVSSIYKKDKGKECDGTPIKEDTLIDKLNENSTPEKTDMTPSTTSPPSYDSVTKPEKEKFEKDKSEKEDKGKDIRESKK
T1 sequence (Q07699 19-218 partner): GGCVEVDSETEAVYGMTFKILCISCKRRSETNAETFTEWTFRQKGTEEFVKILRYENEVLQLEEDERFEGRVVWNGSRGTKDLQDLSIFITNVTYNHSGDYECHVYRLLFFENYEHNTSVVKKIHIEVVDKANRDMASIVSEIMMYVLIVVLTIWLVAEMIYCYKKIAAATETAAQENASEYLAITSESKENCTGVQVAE
T1 sequence (O60939 30-215 partner): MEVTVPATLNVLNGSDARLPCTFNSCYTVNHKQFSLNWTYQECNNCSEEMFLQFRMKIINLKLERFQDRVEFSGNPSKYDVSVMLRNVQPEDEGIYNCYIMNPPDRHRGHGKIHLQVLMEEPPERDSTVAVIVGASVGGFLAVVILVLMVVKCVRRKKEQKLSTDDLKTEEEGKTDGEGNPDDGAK

Regarding `Cc1csc(CN2Cc3cc(-c4ccc(OC(F)(F)F)cc4)ccc3OC2=O)n1` [Example 52, 3-((4-methylthiazol-2-yl)methyl)-6-(4-(trifluoromethoxy)phenyl)-3,4-dihydro-2H-benzo[e][1,3]oxazin-2-one], on hNaV1.2 (SCN2A), the inhibition at 1 µM amounted to 20.8% and the inhibition at 10 µM amounted to 63.7%. Moreover, at hNaV1.1 (SCN1A), the inhibition at 1 µM turned out to be 32.9% and the inhibition at 10 µM was 57.6%.

As for `Cc1csc(CN2Cc3cc(-c4ccc(OC(F)(F)F)c(F)c4)ccc3OC2=O)n1` [Example 53, 6-(3-fluoro-4-(trifluoromethoxy)phenyl)-3-((4-methylthiazol-2-yl)methyl)-3,4-dihydro-2H-benzo[e][1,3]oxazin-2-one], at hNaV1.2 (SCN2A), the inhibition at 1 µM is 32.3% and the inhibition at 10 µM was 73.6%. At hNaV1.1 (SCN1A), the inhibition at 1 µM amounted to 52.7% and the inhibition at 10 µM amounted to 87.6%.

For `Cc1csc(CN2Cc3cc(-c4ccc(OC(F)(F)F)c(C)c4)ccc3OC2=O)n1` [Example 54, 6-(3-methyl-4-(trifluoromethoxy)phenyl)-3-((4-methylthiazol-2-yl)methyl)-3,4-dihydro-2H-benzo[e][1,3]oxazin-2-one], the inhibition at 1 µM is 6.1% at hNaV1.2 (SCN2A) and < 5% on hNaV1.1 (SCN1A). Also, the inhibition at 10 µM at hNaV1.2 (SCN2A) turned out to be 43.5%; at hNaV1.1 (SCN1A), 36.7%.

Take `Cc1csc(CN2Cc3cc(-c4ccc(OC(F)(F)F)cc4F)ccc3OC2=O)n1` [Example 55, 6-(2-fluoro-4-(trifluoromethoxy)phenyl)-3-((4-methylthiazol-2-yl)methyl)-3,4-dihydro-2H-benzo[e][1,3]oxazin-2-one]: at hNaV1.2 (SCN2A), the inhibition at 1 µM worked out at 22.6% and the inhibition at 10 µM is 61.8%. Further, on hNaV1.1 (SCN1A), the inhibition at 1 µM was < 5% and the inhibition at 10 µM came out at 55%.

For `Cc1csc(CN2Cc3cc(-c4ccc(Cl)c(Cl)c4)ccc3OC2=O)n1` [Example 56, 6-(3,4-dichlorophenyl)-3-((4-methylthiazol-2-yl)methyl)-3,4-dihydro-2H-benzo[e][1,3]oxazin-2-one], the inhibition at 1 µM on hNaV1.2 (SCN2A) and on hNaV1.1 (SCN1A) was < 5% each time. Moreover, the inhibition at 10 µM on hNaV1.2 (SCN2A) amounted to 15.2%; at hNaV1.1 (SCN1A), 10.7%.

Consider `Cc1csc(CN2Cc3cc(-c4ccc(OC(F)(F)F)cc4Cl)ccc3OC2=O)n1` [Example 57, 6-(2-chloro-4-(trifluoromethoxy)phenyl)-3-((4-methylthiazol-2-yl)methyl)-3,4-dihydro-2H-benzo[e][1,3]oxazin-2-one], for which, on hNaV1.2 (SCN2A), the inhibition at 1 µM turned out to be 12.8% and the inhibition at 10 µM is 61.5%. Moreover, on hNaV1.1 (SCN1A), the inhibition at 1 µM was < 5% and the inhibition at 10 µM amounted to 48.8%.

For `COc1cc(OC(F)(F)F)ccc1-c1ccc2c(c1)CN(Cc1nc(C)cs1)C(=O)O2` [Example 58, 6-(2-methoxy-4-(trifluoromethoxy)phenyl)-3-((4-methylthiazol-2-yl)methyl)-3,4-dihydro-2H-benzo[e][1,3]oxazin-2-one], on hNaV1.2 (SCN2A), the inhibition at 1 µM turned out to be 10.6% and the inhibition at 10 µM came out at 58.7%. Besides, at hNaV1.1 (SCN1A), the inhibition at 1 µM amounted to 7.8% and the inhibition at 10 µM came out at 68.7%.

As for `Cc1csc(CN2Cc3cc(-c4ccc(Cl)c(F)c4)ccc3OC2=O)n1` [Example 59, 6-(4-chloro-3-fluorophenyl)-3-((4-methylthiazol-2-yl)methyl)-3,4-dihydro-2H-benzo[e][1,3]oxazin-2-one], the results for the inhibition at 1 µM at hNaV1.2 (SCN2A) and on hNaV1.1 (SCN1A) were < 5% and 20.7%, respectively. Further, the values for the inhibition at 10 µM at hNaV1.2 (SCN2A) and on hNaV1.1 (SCN1A) were 41.2% and 39.9%, respectively.
